Measurements reported in a melting point compilation (Tetko et al.; mined from patent text by program, amines drawn as free bases though some values may be those of a salt).

Row | Compound | melting point
1 | OCCOc1ccc2c(c1)oc1cc(Cl)ccc12 | 118 to 120 °C
2 | COc1cc(N)c(Cl)cc1C(=O)NCC1CCN(CCCCCCC(=O)c2ccccc2)CC1 | 128 to 130 °C
3 | C=Cc1ccc(-c2ccc3cc(C(=O)OCc4ccccc4)ccc3c2)cc1C12CC3CC(CC(C3)C1)C2 | 158 to 160 °C
4 | COc1ccccc1C1(NCCC(=O)OC(C)(C)C)C(=O)Nc2ccc(Cl)cc21 (configuration not stated) | 170 °C
5 | COC(=O)c1c(-c2ccccc2Cl)c2cc(C)cc(C)c2n(C)c1=O | 128 to 129 °C
6 | OC(CSC(=S)Nc1ccc(Cl)cn1)c1ccccc1 (configuration not stated) | 116 °C
7 | COc1ncc(S(C)(=O)=O)cc1Br | 148 to 150 °C
8 | O=C1CN=C(c2ccccc2F)c2ccccc2N1 | 181 to 182 °C
9 | NC(=O)Cc1c(-c2ccccc2)nn(-c2ccccc2)c1-c1ccccc1 | 123 to 124 °C
10 | N#CC=C1OC(=O)c2ccccc21 | 178 to 180 °C
11 | COC(=O)[C@@H]1C[C@H](OC(=O)c2ccccc2)C(=O)[C@H]2[C@@]1(C)CC[C@H]1C(=O)O[C@H](c3ccoc3)C[C@]21C | 165 to 170 °C
12 | COc1ccc(/C=C/c2nc3ccccc3n2-c2ccccn2)cc1 | 146 °C
13 | COCC(O)=C(N)C(=O)O | 186 to 187 °C
14 | COC1(c2cc(F)cc(Sc3ccc(C(=NO)c4nccs4)cc3)c2)CCOCC1 | 153 to 154 °C
15 | COC(=O)c1c(-c2ccc(Cl)cc2)ccnc1Br | 73 to 76 °C
16 | COc1ccc(C(=O)Nc2ccc(C3(CNC(=O)c4cscn4)CCCC3)cc2)cc1OC | 101 to 104 °C
17 | O=c1[nH]cc(C2CCCCC2)c2ccccc12 | 111 to 112 °C
18 | Fc1ccc2[nH]c3c(c2c1)CN(CCCc1cccnc1)CC3 | 215 to 218 °C
19 | N#Cc1cc(-c2ncccc2C(=O)O)ccc1OCCc1ccccc1Cl | 187 to 188 °C
20 | CCOc1ccc2[nH]c(=O)n(CCN(C(C)C)C(C)C)c2c1 | 89 °C
21 | CCCCCCCC(CCCCCCCCC(CCCCCCC)NC(C)=O)NC(C)=O (configuration not stated) | 158 to 162 °C
22 | OC(c1ccc(Cl)cc1)c1cccnc1-n1ccnc1 (configuration not stated) | 133 to 134 °C

Row | Compound | melting point
23 | CCOC(=O)c1ccc(OCC2CCN(C(=O)OC(C)(C)C)CC2)c(OC)c1 | 81 to 83 °C
24 | CCc1nc2cc(/C=C/C(=O)NO)ccc2c(=O)n1CCc1ccc(OC)cc1 | 215 to 217 °C
25 | CN(c1cccc2cc(-c3ncc(CCC#N)s3)[nH]c12)S(=O)(=O)c1cccs1 | 207 to 208 °C
26 | CC1Cc2c(c(Cl)cc(Cl)c2-n2nc(C(C)(C)C)oc2=O)O1 (configuration not stated) | 112 to 115 °C
27 | C=CCOc1cc(C)c2ccc(=O)oc2c1 | 83 °C
28 | CCOC(=NC(=O)Nc1ccc(OC(F)(F)F)cc1)c1ccccc1F | 93 to 95 °C
29 | CCOC(=O)CC(=O)c1cc(F)c(F)c(OC)c1F | 42 to 44 °C
30 | CS(=O)(=O)c1ccc(-c2nc(C(F)(F)F)[nH]c2-c2ccc(F)c(F)c2)cc1 | 249 to 252 °C
31 | COc1ccc(C2CCCCC2)cc1-c1csc(NC(=O)N2CCN(C[C@@H]3CCCN(CC#N)C3)CC2)n1 | 106 °C
32 | N#CC(NC(=O)c1cccn2ccnc12)c1ccco1 (configuration not stated) | 149 to 151 °C
33 | COc1ccc(NC(=O)c2ccc(-c3ccc(-c4noc(CO)n4)cc3C)cc2)cc1N1CCN(C)CC1 | 175 to 178 °C
34 | Cc1cc2c(cc1O)C(C1(c3ccccn3)CC1)N(C)CC2 (configuration not stated) | 218 °C
35 | CC(C)CC(=O)Nc1c(C(=O)c2cc(CO)co2)[nH]c2cc(Cl)ccc12 | 200 to 201 °C
36 | COC(=O)c1ccc(C#N)cc1Cl | 90 to 92 °C
37 | CN1c2ccccc2Sc2cn(C)c(=O)c(C#N)c21 | 236 to 237 °C
38 | CNCCc1ccc(CCC(=O)O)cc1 | 211 to 212 °C
39 | Cc1cc(-c2c3c(cc4ccc(O)cc24)-c2ccc(O)cc2CO3)ccc1F | 185 to 188 °C
40 | CN1C(=O)C(C)(C)C(=O)N(C)c2ccccc21 | 159 to 160 °C
41 | COC(=O)c1ccc(COC2CC(n3cc(F)c(=O)[nH]c3=O)OC2CO)cc1 (configuration not stated) | 169 to 170 °C
42 | O=C(O)c1cccc(CC2COc3cc(OCc4ccc5ccccc5n4)ccc3C2O)c1 (configuration not stated) | 165 to 168 °C
43 | COC(=O)CCCCC(=O)c1ccc(F)cc1 | 41 to 43 °C
44 | COc1cnn(-c2cc(F)c(C#N)cc2F)c(=O)c1Cl | 182 °C

Row | Compound | melting point
45 | CCOC(=O)C[C@H]1O[C@H](c2ccc(OCC)cc2OC)c2cc(Cl)ccc2N(CC(C)(C)C)C1=O (relative stereo) | 164 to 166 °C
46 | CC(=O)Nc1cccc(C(C)=O)c1C(=O)O | 131 °C
47 | CN1CCN(C(=O)COc2ccc(N)cc2)CC1 | 71 to 73 °C
48 | CC(C)(C)OC(=O)C1CCC2(CCn3c(cc4ccccc43)C2)C1=O (configuration not stated) | 129 to 131 °C
49 | CC1(C)CCC(C)(C)c2cc(-c3cc(-c4ccc(C(=O)O)cc4)ccc3OCCN3CCOCC3)ccc21 | 270 to 272 °C
50 | CSC1=Nc2ccccc2C2=NCC(CC3CNCCC34CCCCC4)N12 (configuration not stated) | 114 to 115 °C
51 | C(=CCN(Cc1ccccc1)Cc1ccccc1)CN(Cc1ccccc1)Cc1ccccc1 | 114 to 115 °C
52 | O=c1[nH]c2ccc(Cl)cc2c2nc(-c3cccnc3)nn12 | 189 to 193 °C
53 | CCCCC1(C2CCCC2)Cc2cc(O)c(Cl)c(Cl)c2C1=O (configuration not stated) | 160 °C
54 | Cn1ccc2cccc(C3=C(c4c[nH]c5c(CCCO)cccc45)C(=O)NC3=O)c21 | 183 to 185 °C
55 | CCOc1nn(-c2c(Cl)cc(C(F)(F)F)cc2Cl)c(N)c1C(=O)c1cc(C)ccc1C | 99 to 101 °C
56 | CN(C)c1nc(Br)cnc1NS(=O)(=O)c1cccc2c(N(C)C)cccc12 | 180 to 182 °C
57 | O=c1oc2ccccc2s1 | 25.8 to 27 °C
58 | CC(C)(C)OC(=O)N1CC(CC(=O)O)c2ccccc21 (single isomer, unassigned; (+)) | 137 to 138 °C
59 | CC1(C)CON(Cc2ccc(N3C(=O)C4=C(CCCC4)C3=O)cc2Cl)C1=O | 102 to 104 °C
60 | CN(C)C(=O)c1cc(O)ccc1O | 144 to 146 °C
61 | N#CC1=C(c2ccccc2)Nc2n[nH]cc2C1c1cccc(C#N)c1Br (configuration not stated) | > 270 °C
62 | O=C(O)Cc1c(C(=O)O)c2cc(Oc3ccc(C(F)(F)F)cc3)ccc2n1-c1ccccc1 | 255 to 257 °C
63 | N#Cc1ccc(NCCCN2C3CCC2CNC3)cc1 | 44 to 46 °C
64 | CC(C)c1nn(-c2ccc(Cl)cc2NO)c(=O)o1 | 129 °C
65 | CN(C)C(=O)Cc1c(-c2ccccc2)nn2cccnc12 | 156 to 158 °C

Next, values leading:

Row | melting point | Compound
66 | 49 to 52 °C | CS(=O)(=O)c1ccc(-c2cc(/C=C/CO)nn2CC2CCCCC2)cc1
67 | 153 °C | O=C(c1cc(Cl)ccc1O)c1cc(Cl)cc([N+](=O)[O-])c1O
68 | 266 to 268 °C | Cc1ccc2cccc(OCc3c(C)ccc(NC(=O)CN4C(=O)c5ccccc5C4=O)c3C)c2n1
69 | 85 to 87 °C | CC(C)(C)CNc1cc(F)cc(C(=O)Nc2ccc(OCCN3CCOCC3)c3ccccc23)c1
70 | 190 to 191 °C | COc1ccc(Cl)n2nc(S(=O)(=O)Nc3c(F)cccc3F)nc12
71 | 296 to 297 °C | Oc1nc(-c2ccccc2)nc(-c2ccccc2)n1
72 | 224 °C | CC#CCOc1ccc(S(=O)(=O)C(C(=O)NO)C2CCN(C(=O)c3ccccc3)CC2)cc1 (configuration not stated)
73 | 126 to 127 °C | CCCOc1cc(OCCCc2cn(-c3ccc(C(F)(F)F)cn3)nc2OCC)ccc1CCC(=O)O
74 | 146 °C | O=C(O)c1ccc(Cl)cc1Oc1cccc(C(F)(F)F)c1
75 | 130 to 132 °C | COc1ccc(-c2nnc(Cl)nc2-c2ccc(OC)cc2)cc1
76 | 112 to 114 °C | CCc1nc(C)cn1C(=O)c1c(Cl)cccc1Cl
77 | 95 °C | O=C(O)CC1COc2ccccc2O1 (configuration not stated)
78 | 201 to 203 °C | Cc1cc(Oc2[nH]c(=O)[nH]c(=O)c2C(C)C)cc(C2OCCO2)c1
79 | 116 to 117 °C | COc1cc2ncnc(N3CCC(C(C)=O)CC3)c2cc1OC
80 | 139 to 141 °C | Cc1nc(N2CCN(Cc3nc(C)n(-c4ccccc4)n3)C2=O)sc1C(=O)NCc1ccccc1
81 | 93.5 to 95 °C | Cc1noc(C)c1C(C)(O)c1ccsc1 (configuration not stated)
82 | 248 to 252 °C | C[C@]1(CN2CCN(c3ccc(C(=O)O)cc3)CC2)Cn2cc([N+](=O)[O-])nc2O1
83 | 124 to 126 °C | COc1ccc(Cl)ccc1=O
84 | 146 to 147 °C | COc1cc(C=CC(=O)CC(C)=O)ccc1O

Row | melting point | Compound
85 | > 200 °C | O=C(O)c1ccc(-c2cnc3c(c2)N(Cc2c(Cl)cccc2Cl)C(=O)CN3)cc1
86 | > 300 °C | O=C(CC(=O)Nc1ccc2c(c1)NC(=O)/C2=C\c1ccc[nH]1)Nc1ccc(F)cc1
87 | > 300 °C | O=C(O)c1cccc2c1Cc1c-2[nH]c2ccc(F)cc12
88 | 183 to 185 °C | O=c1c2cc(F)c(N3CCCC3)nc2n(-c2ccc(F)cc2F)c(=O)n1OCc1ccccc1
89 | 213 to 215 °C | NNC1CCC(c2ccccc2F)c2cc(Cl)ccc2N1 (configuration not stated)
90 | 58 to 60 °C | CN(C)c1cccc(CC(=O)Cc2cccc(Cl)c2)c1
91 | 190 to 191 °C | O=C(O)C1CN(CCCS(=O)(=O)O)CCN1 (configuration not stated)
92 | 153 to 155 °C | CCOC(=O)c1c(CN(CC)CC)nc2sc3c(c2c1-c1ccc(OC)c(OC)c1)CCN(C(=O)NC)C3
93 | 60 °C | COC(=O)N=C(N(C)C)N(C)C(=O)NC1CCCCC1
94 | 143 to 145 °C | CON=C(C)COc1c(-c2ccc(S(C)(=O)=O)cc2)cnn(-c2ccc(F)c(F)c2)c1=O
95 | 123 to 126 °C | Nc1cc(/C=C/c2cc(/C=C/c3ccc4cc[nH]c4c3)[nH]n2)ccc1O
96 | 118 °C | NC(=O)NC(CS)Cc1ccccc1 (single isomer, unassigned; (+))
97 | 246 to 249 °C | CCOC(=O)C1=C(C(F)(F)F)COc2ccc3ccccc3c21
98 | 89 to 90 °C | CC1(C)CCCC(C)(C)N1c1nc(Cl)cc(Cl)n1
99 | 139 to 140 °C | CC1(C(=O)NCC(=O)O)CC1(Cl)Cl (configuration not stated)
100 | 159 °C | COc1ccc(O)c2[nH]c(C)c(C)c12
101 | 142 to 143 °C | NCCSC(c1ccccc1)(c1ccccc1)c1ccccc1
102 | 149 to 152 °C | COc1cc(/C=C2/C(C)=C(CC(=O)O)c3cc(F)ccc32)cc(OC)c1OC
